Experiments:
Assay type in all cases: in vivo
Matricaria inodora [1] = test: Herbicidal action pre-emergence, greenhouse pot test; settings: application rate 320 g/ha
Setaria viridis [2] = test: Herbicidal action post-emergence, greenhouse pot test; settings: application rate 80 g/ha
Method in brief: (§1)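 Weeds in sandy loam pots sprayed at one-leaf stage (2–3 weeks after sowing) with WP or EC formulations in water plus 0.5% additive, 600 L/ha, at 80 g/ha or lower. After about 3 weeks in greenhouse, efficacy scored visually versus untreated controls (100% = dead, 0% = like control).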

Echinochloa crus-galli [3] = test: as above; settings: application rate 80 g/ha
Method in brief: as §1

Pharbitis purpurea [4] = test: as above; settings: application rate 80 g/ha
Method in brief: as §1

Alopecurus myosuroides [5] = test: as above; settings: application rate 80 g/ha, scored visually after about 3 weeks vs untreated controls
Method in brief: as §1

Veronica persica [6] = test: as above; settings: application rate 80 g/ha
Method in brief: as §1

Abutilon theophrasti [7] = test: as above; settings: application rate 80 g/ha
Method in brief: as §1

Matricaria inodora [8] = test: as above; settings: application rate 80 g/ha
Method in brief: as §1

Viola tricolor [9] = test: as above; settings: application rate 80 g/ha
Method in brief: as §1

Stellaria media [10] = test: as above; settings: application rate 80 g/ha
Method in brief: as §1

Amaranthus retroflexus [11] = test: as above; settings: application rate 80 g/ha
Method in brief: as §1

Lolium multiflorum [12] = test: as above; settings: application rate 80 g/ha
Method in brief: as §1

Polygonum convolvulus [13] = test: as above; settings: application rate 80 g/ha
Method in brief: as §1

Avena fatua = test: as above; settings: application rate 80 g/ha
Method in brief: as §1

Oryza sativa = test: Crop compatibility post-emergence, greenhouse pot test; settings: application rate 20 g/ha
Method in brief: (§2)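 Crops grown in sandy loam in greenhouse pots; treated post-emergence at one-leaf stage, 2–3 weeks after sowing, spraying WP or EC formulations as aqueous suspension/emulsion with 0.5% additive at 600 L/ha. Damage scored visually after about 3 weeks against untreated controls (0% = like control, 100% = dead).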

Triticum aestivum = test: as above
Method in brief: as §2

Setaria viridis [14] = test: Herbicidal action pre-emergence, greenhouse pot test; settings: application rate 320 g/ha
Method in brief: (§3)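 Seeds sown in pots and covered with soil; WP or EC formulations sprayed onto the soil surface as aqueous suspension/emulsion with 0.5% additive at 600 L/ha water, at 320 g/ha or lower. Plants kept in greenhouse; efficacy scored visually after about 3 weeks as % versus untreated controls (100% = dead).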

Echinochloa crus-galli [15] = test: as above; settings: application rate 320 g/ha
Method in brief: as §3

Pharbitis purpurea [16] = test: as above; settings: application rate 320 g/ha
Method in brief: as §3

Alopecurus myosuroides [17] = test: as above
Method in brief: as §3

Veronica persica [18] = test: as above; settings: application rate 320 g/ha
Method in brief: as §3

Cyperus esculentus = test: as above; settings: application rate 320 g/ha
Method in brief: as §3

Abutilon theophrasti [19] = test: as above; settings: application rate 320 g/ha
Method in brief: as §3

Viola tricolor [20] = test: as above; settings: application rate 320 g/ha
Method in brief: as §3

Stellaria media [21] = test: as above; settings: application rate 320 g/ha
Method in brief: as §3

Amaranthus retroflexus [22] = test: as above
Method in brief: as §3

Lolium multiflorum [23] = test: as above; settings: application rate 80 g/ha, scored visually after about 3 weeks vs untreated controls
Method in brief: as §3

Polygonum convolvulus [24] = test: as above; settings: application rate 320 g/ha
Method in brief: as §3

Digitaria sanguinalis [25] = test: as above; settings: application rate 320 g/ha
Description: Seeds of mono- and dicotyledonous weeds and crop plants were laid out in plastic or organic plant pots and covered with soil. The compounds of the invention formulated in the form of wettable powders (WP) or as emulsion concentrates (EC) were then applied to the surface of the covering soil as an aqueous suspension or emulsion with addition of 0.5% additive at a water application rate equivalent to 600 L/ha. After the treatment, the pots were placed in a greenhouse and kept under good growth conditions for the test plants. After about 3 weeks, the efficacy of the preparations was scored visually as a percentage by comparison with untreated controls. For example, 100% efficacy=plants have died. 0% efficacy=like control plants.

Lolium rigidum [26] = test: Herbicidal action post-emergence, greenhouse pot test; settings: application rate 80 g/ha
Method in brief: as §1

Zea mays = test: Crop compatibility post-emergence, greenhouse pot test; settings: application rate 20 g/ha
Method in brief: as §2

Hordeum murinum = test: Herbicidal action pre-emergence, greenhouse pot test; settings: application rate 320 g/ha
Method in brief: as §3

Lolium rigidum [27] = test: as above; settings: application rate 320 g/ha
Method in brief: as §3

Digitaria sanguinalis [28] = test: Herbicidal action post-emergence, greenhouse pot test; settings: application rate 80 g/ha

Compound	Matricaria inodora (Efficacy in %) (Matricaria inodora [1])	Setaria viridis (Efficacy in %) (Setaria viridis [2])	Echinochloa crus-galli (Efficacy in %) (Echinochloa crus-galli [3])	Pharbitis purpurea (Efficacy in %) (Pharbitis purpurea [4])	Alopecurus myosuroides (Efficacy in %) (Alopecurus myosuroides [5])	Veronica persica (Efficacy in %) (Veronica persica [6])	Abutilon theophrasti (Efficacy in %) (Abutilon theophrasti [7])	Matricaria inodora (Efficacy in %) (Matricaria inodora [8])	Viola tricolor (Efficacy in %) (Viola tricolor [9])	Stellaria media (Efficacy in %) (Stellaria media [10])	Amaranthus retroflexus (Efficacy in %) (Amaranthus retroflexus [11])	Polygonum convolvulus (Efficacy in %) (Polygonum convolvulus [13])	Avena fatua (Efficacy in %) (Avena fatua)	Oryza sativa (Efficacy in %) (Oryza sativa)	Setaria viridis (Efficacy in %) (Setaria viridis [14])	Echinochloa crus-galli (Efficacy in %) (Echinochloa crus-galli [15])	Pharbitis purpurea (Efficacy in %) (Pharbitis purpurea [16])	Veronica persica (Efficacy in %) (Veronica persica [18])	Abutilon theophrasti (Efficacy in %) (Abutilon theophrasti [19])	Viola tricolor (Efficacy in %) (Viola tricolor [20])	also measured
CCOC(=O)CCOC(=O)C(C)Sc1cc(-n2c(=O)cc(C(F)(F)F)n(C)c2=O)c(F)cc1Cl (centres unmarked) [I.1-3]	100%	100%	100%	100%	100%	100%	100%	100%	100%	100%	100%	100%	80%	20%	100%	100%	100%	100%	100%	100%	Lolium multiflorum (Efficacy in %) (Lolium multiflorum [12]): 100%; Triticum aestivum (Efficacy in %) (Triticum aestivum; application rate 20 g/ha): 10%; Alopecurus myosuroides (Efficacy in %) (Alopecurus myosuroides [17]; application rate 80 g/ha): 90%; Cyperus esculentus (Efficacy in %) (Cyperus esculentus): 100%; Stellaria media (Efficacy in %) (Stellaria media [21]): 100%; Amaranthus retroflexus (Efficacy in %) (Amaranthus retroflexus [22]; application rate 80 g/ha): 100%; Lolium multiflorum (Efficacy in %) (Lolium multiflorum [23]): 100%; Polygonum convolvulus (Efficacy in %) (Polygonum convolvulus [24]): 100%
COC(=O)C(C)(C)COC(=O)C(C)Sc1cc(-n2c(=O)cc(C(F)(F)F)n(C)c2=O)c(F)cc1Cl (centres unmarked) [I.1-32]	100%	100%	100%	100%	80%	100%	100%	100%	100%	100%	100%	100%	80%	20%	100%	100%	100%	100%	100%	100%	Digitaria sanguinalis (Efficacy in %) (Digitaria sanguinalis [25]): 100%; Lolium rigidum (Efficacy in %) (Lolium rigidum [26]): 100%; Zea mays (Efficacy in %) (Zea mays): 20%; Triticum aestivum (Efficacy in %) (Triticum aestivum; application rate 5 g/ha): 20%; Hordeum murinum (Efficacy in %) (Hordeum murinum): 90%; Alopecurus myosuroides (Efficacy in %) (Alopecurus myosuroides [17]; application rate 320 g/ha): 90%; Stellaria media (Efficacy in %) (Stellaria media [21]): 100%; Lolium rigidum (Efficacy in %) (Lolium rigidum [27]): 90%; Amaranthus retroflexus (Efficacy in %) (Amaranthus retroflexus [22]; application rate 320 g/ha): 100%; Polygonum convolvulus (Efficacy in %) (Polygonum convolvulus [24]): 100%; Digitaria sanguinalis (Efficacy in %) (Digitaria sanguinalis [28]): 100%
